The source of these data is patent publication US9896441B2 (Lycera Corporation, priority 2014, dated 2018).

One assay deals with T1, RORγ-LBD (Homo sapiens, UniProt P51449).
T1 construct: made in house; host or cells: SF9 cells (baculovirus); used as diluted lysate
T1 sequence (P51449 269-508 limits assumed): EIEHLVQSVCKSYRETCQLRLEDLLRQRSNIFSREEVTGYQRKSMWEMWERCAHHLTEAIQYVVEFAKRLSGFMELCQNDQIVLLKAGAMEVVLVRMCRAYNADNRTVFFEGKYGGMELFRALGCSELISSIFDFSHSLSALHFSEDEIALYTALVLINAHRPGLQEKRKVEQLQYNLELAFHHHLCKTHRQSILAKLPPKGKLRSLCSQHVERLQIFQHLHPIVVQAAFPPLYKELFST
The experiment in a line: RORγ-Ligand Binding Domain (LBD) TR-FRET Assay.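 On TR-FRET Assay Max Response: 665/615 nm signal ratio set to 100 without ursolic acid or test compound.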 As to conditions: RORγ-LBD TR-FRET assay; for TR-FRET Assay Max Response: maximum response. The class given is biochemical. The essentials: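 Lysate from SF9 cells expressing His-RORγ-LBD is diluted to about 3 nM final in 50 mM Tris pH 7.0 assay buffer. A biotin-tagged SRC1 LXXLL peptide goes in at 200 nM final, plus ursolic acid at 2 μM final. Test compounds carry 1% DMSO final; signal read by TR-FRET.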
For orientation: In TR-FRET formats the signal depends on donor and acceptor labels being close together.

A further assay has as its target T2, Gal4-RORγ-LBD (Homo sapiens, UniProt P51449).
T2 construct: expressed in transfected cells
T2 sequence (P51449 269-508 limits assumed): T1 sequence (P51449 269-508 limits assumed)
The experiment in a line: Gal4-RORγ Luciferase Reporter Assay in HEK-293T Cells. The class given is cell-based. The conditions noted are these: HEK-293 cells, luciferase reporter, in presence of ursolic acid; for Gal4-RORγ Assay Max Response: maximum response. The procedure, abridged:
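Max Response was taken as the upper plateau of a 4-parameter logistic fit of luciferase signal, normalized to 100 for wells without ursolic acid or compound. Transiently Gal4-RORγ-LBD/Gal4-luc transfected HEK-293 cells carrying […] ursolic acid were incubated with test compounds (0.2% DMSO) overnight at 37 °C and read with One-Glo.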
On the technique in general: A reporter such as luciferase makes a cellular process visible.

The structures appear in SMILES notation. pEC50: −log10 of the molar value.

A word on the pEC50: it is the EC50 on a negative log10 scale, so that one unit is a factor of ten. For `CC(=O)N[C@@H]1Cc2ccc(OCc3c(F)cccc3Cl)cc2N(S(=O)(=O)c2cccc(C(F)(F)F)c2)C1` [Example 160, (R)—N-(7-((2-chloro-6-fluorobenzyl)oxy)-1-((3-(trifluoromethyl)phenyl)sulfonyl)-1,2,3,4-tetrahydroquinolin-3-yl)acetamide], the pEC50 at RORγ-LBD and on Gal4-RORγ-LBD was greater than 6.30 in each case.
With `C/C(=C\c1ccc2c(c1)N(S(=O)(=O)c1cccc(C(F)(F)F)c1)C[C@@H](O)C2)c1c(F)cccc1Cl` [Example 161, (S,E)-7-(2-(2-Chloro-6-fluorophenyl)prop-1-en-1-yl)-1-((3-(trifluoromethyl)phenyl)sulfonyl)-1,2,3,4-tetrahydroquinolin-3-ol], on RORγ-LBD, the pEC50 was greater than 6.30 and the “TR-FRET Assay Max Response” value was “** (a value in the range of greater than 90 to 150)”. In addition, at Gal4-RORγ-LBD, the pEC50 was greater than 6.30 and the “Gal4-RORγ Assay Max Response” value is “** (a value in the range of greater than 90 to 150)”.
As to `C/C(=C\c1ccc2c(c1)N(S(=O)(=O)c1cccc(C(F)(F)F)c1)C[C@H](O)C2)c1c(F)cccc1Cl` [Example 162, (R,E)-7-(2-(2-Chloro-6-fluorophenyl)prop-1-en-1-yl)-1-((3-(trifluoromethyl)phenyl)sulfonyl)-1,2,3,4-tetrahydroquinolin-3-ol], on RORγ-LBD, the pEC50 is greater than 6.30 and the “TR-FRET Assay Max Response” value is on record as “*** (a value in the range of greater than 150 to 200)”. On Gal4-RORγ-LBD, the pEC50 is greater than 6.30 and the “Gal4-RORγ Assay Max Response” value is on record as “** (a value in the range of greater than 90 to 150)”.
Regarding `O=S(=O)(c1cccc(C(F)(F)F)c1)N1C[C@H](O)Cc2ccc(/C=C/c3c(F)cccc3Cl)cc21` [Example 163, (R,E)-7-(2-Chloro-6-fluorostyryl)-1-((3-(trifluoromethyl)phenyl)sulfonyl)-1,2,3,4-tetrahydroquinolin-3-ol], at RORγ-LBD, the pEC50 is greater than 6.30 and the “TR-FRET Assay Max Response” value is reported as “** (a value in the range of greater than 90 to 150)”. At Gal4-RORγ-LBD, the pEC50 was greater than 6.30 and the “Gal4-RORγ Assay Max Response” value is on record as “** (a value in the range of greater than 90 to 150)”.
Regarding `C/C(=C\c1ccc2c(c1)N(S(=O)(=O)c1cccc(C(F)(F)F)c1)C[C@H](N)C2)c1c(F)cccc1Cl` [Example 164, (R,E)-7-(2-(2-Chloro-6-fluorophenyl)prop-1-en-1-yl)-1-((3-(trifluoromethyl)phenyl)sulfonyl)-1,2,3,4-tetrahydroquinolin-3-amine], the pEC50 at RORγ-LBD was greater than 6.30; on Gal4-RORγ-LBD it was 5.30 to 6.30.
As to `CC(=O)N[C@@H]1Cc2ccc(/C=C(\C)c3c(F)cccc3Cl)cc2N(S(=O)(=O)c2cccc(C(F)(F)F)c2)C1` [Example 165, (R,E)-N-(7-(2-(2-Chloro-6-fluorophenyl)prop-1-en-1-yl)-1-((3-(trifluoromethyl)phenyl)sulfonyl)-1,2,3,4-tetrahydroquinolin-3-yl)acetamide], at RORγ-LBD, the pEC50 was greater than 6.30 and the “TR-FRET Assay Max Response” value was “*** (a value in the range of greater than 150 to 200)”. For the same compound, on Gal4-RORγ-LBD, the pEC50 is greater than 6.30 and the “Gal4-RORγ Assay Max Response” value is “* (a value in the range of 30 to 90)”.
For `C/C(=C\c1ccc2c(c1)N(S(=O)(=O)c1cccc(C(F)(F)F)c1)C[C@@H](N)C2)c1c(F)cccc1Cl` [Example 166, (S,E)-7-(2-(2-Chloro-6-fluorophenyl)prop-1-en-1-yl)-1-((3-(trifluoromethyl)phenyl)sulfonyl)-1,2,3,4-tetrahydroquinolin-3-amine], on RORγ-LBD, the negative logarithm of the EC50 (pEC50) is greater than 6.30 and the “TR-FRET Assay Max Response” value is listed as “*** (a value in the range of greater than 150 to 200)”. Moreover, at Gal4-RORγ-LBD, the pEC50 is 5.30 to 6.30 and the “Gal4-RORγ Assay Max Response” value is listed as “** (a value in the range of greater than 90 to 150)”.
For `CC(=O)N[C@H]1Cc2ccc(/C=C(\C)c3c(F)cccc3Cl)cc2N(S(=O)(=O)c2cccc(C(F)(F)F)c2)C1` [Example 167, (S,E)-N-(7-(2-(2-chloro-6-fluorophenyl)prop-1-en-1-yl)-1-((3-(trifluoromethyl)phenyl)sulfonyl)-1,2,3,4-tetrahydroquinolin-3-yl)acetamide], on RORγ-LBD, the pEC50 is greater than 6.30 and the “TR-FRET Assay Max Response” value is listed as “*** (a value in the range of greater than 150 to 200)”. For the same compound, on Gal4-RORγ-LBD, the pEC50 is 5.30 to 6.30 and the “Gal4-RORγ Assay Max Response” value was “** (a value in the range of greater than 90 to 150)”.
On the same counts, the results for `CC(C)(O[C@@H]1Cc2ccc(OCc3c(F)cccc3Cl)cc2N(S(=O)(=O)c2cccc(C(F)(F)F)c2)C1)C(=O)O` [Example 172, (R)-2-((7-((2-Chloro-6-fluorobenzyl)oxy)-1-((3-(trifluoromethyl)phenyl)sulfonyl)-1,2,3,4-tetrahydroquinolin-3-yl)oxy)-2-methylpropanoic acid] are greater than 6.30, “** (a value in the range of greater than 90 to 150)”, 5.30 to 6.30 and “** (a value in the range of greater than 90 to 150)”.
In the case of `COC(=O)CO[C@@H]1Cc2ccc(OCc3c(F)cccc3Cl)cc2N(S(=O)(=O)c2cccc(C(F)(F)F)c2)C1` [Example 173A], the pEC50 on RORγ-LBD and at Gal4-RORγ-LBD was greater than 6.30 in each case.
Consider `CC(O[C@@H]1Cc2ccc(OCc3c(F)cccc3Cl)cc2N(S(=O)(=O)c2cccc(C(F)(F)F)c2)C1)C(=O)O` (stereo partly drawn) [Example 173C, 2-(((R)-7-((2-chloro-6-fluorobenzyl)oxy)-1-((3-(trifluoromethyl)phenyl)sulfonyl)-1,2,3,4-tetrahydroquinolin-3-yl)oxy)propanoic acid], for which, at RORγ-LBD, the pEC50 is greater than 6.30 and the “TR-FRET Assay Max Response” value is on record as “** (a value in the range of greater than 90 to 150)”. Besides, on Gal4-RORγ-LBD, the pEC50 is greater than 6.30 and the “Gal4-RORγ Assay Max Response” value is given as “** (a value in the range of greater than 90 to 150)”.
As to `COC(=O)CO[C@@H]1Cc2ccc(/C=C(\C)c3c(F)cccc3Cl)cc2N(S(=O)(=O)c2cccc(C(F)(F)F)c2)C1` [Example 173D, methyl (R,E)-2-((7-(2-(2-chloro-6-fluorophenyl)prop-1-en-1-yl)-1-((3-(trifluoromethyl)-phenyl)sulfonyl)-1,2,3,4-tetrahydroquinolin-3-yl)oxy)acetate], on RORγ-LBD, the negative-log EC50 (pEC50) is greater than 6.30 and the “TR-FRET Assay Max Response” value is listed as “** (a value in the range of greater than 90 to 150)”. Moreover, at Gal4-RORγ-LBD, the pEC50 is greater than 6.30 and the “Gal4-RORγ Assay Max Response” value was “** (a value in the range of greater than 90 to 150)”.
For `C/C(=C\c1ccc2c(c1)N(S(=O)(=O)c1cccc(C(F)(F)F)c1)C[C@H](OCC(=O)O)C2)c1c(F)cccc1Cl` [Example 173E, (R,E)-2-((7-(2-(2-chloro-6-fluorophenyl)prop-1-en-1-yl)-1-((3-(trifluoromethyl)-phenyl)sulfonyl)-1,2,3,4-tetrahydroquinolin-3-yl)oxy)acetic acid], at RORγ-LBD, the pEC50 was greater than 6.30 and the “TR-FRET Assay Max Response” value is on record as “** (a value in the range of greater than 90 to 150)”. Further, at Gal4-RORγ-LBD, the pEC50 was 5.30 to 6.30 and the “Gal4-RORγ Assay Max Response” value was “** (a value in the range of greater than 90 to 150)”.
